Results: patent US20250129430A1, “HIGH ATP-AFFINITY PROTEIN AS THERAPEUTIC TARGET FOR INTRACTABLE CANCER MOLECULAR SUBTYPES AND INHIBITOR THEREOF” (VeraVerse Co., Ltd., priority 2021, published 2025)

Assays:
Format in all cases: cell-based, human
AGS = test: Cell viability drug screen, 12-point dose-response AUC; settings: AGS cells (non-SEM subtype); 72 hours
Procedure, shortened: (§1)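 Luminescent viability readings, taken 15 min after reagent addition at room temperature, were normalized to the 0.5% DMSO control to build 12-point dose-response curves. Trapezoidal integration gave the AUC. Cells had been plated at 5×10^3 per well and then exposed to half-log dilutions for 72 h.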

Hs746T = test: as above; settings: Hs746T cells (SEM subtype); 72 hours
Procedure, shortened: (§2)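 Gastric cancer lines seeded 5×10^3 cells/well, dosed after 24 h with half-log 12-point compound dilutions (DMSO 0.5% control), then 72 h at 37 °C. Viability by luminescence, normalized to DMSO; AUC by trapezoidal method, averaged over repeats.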

KATO3 = test: as above; settings: KATO3 cells; 72 hours
Procedure, shortened: as §2

MKN1 = test: as above; settings: MKN1 cells; 72 hours
Procedure, shortened: as §2

MKN28 = test: as above; settings: MKN28 cells; 72 hours
Procedure, shortened: as §2

MKN45 = test: as above; settings: MKN45 cells (non-SEM subtype); 72 hours
Procedure, shortened: as §1

MKN74 = test: as above; settings: MKN74 cells; 72 hours
Procedure, shortened: as §1

NCC19 = test: as above; settings: NCC19 cells; 72 hours
Procedure, shortened: as §2

NCC20 = test: as above; settings: NCC20 cells; 72 hours
Procedure, shortened: as §2

NCC24 = test: as above; settings: NCC24 cells; 72 hours
Procedure, shortened: as §2

NCC59 = test: as above; settings: NCC59 cells; 72 hours
Procedure, shortened: as §2

NCI_N87 = test: as above; settings: NCI_N87 cells; 72 hours
Procedure, shortened: as §2

OCUM1 = test: as above; settings: OCUM1 cells; 72 hours
Procedure, shortened: as §2

SK4 = test: as above; settings: SK4 cells (SEM subtype); 72 hours
Procedure, shortened: as §2

SNU16 = test: as above; settings: SNU16 cells; 72 hours
Procedure, shortened: as §2

SNU1750 = test: as above; settings: SNU1750 cells (SEM subtype); 72 hours
Procedure, shortened: as §2

SNU1967 = test: as above; settings: SNU1967 cells; 72 hours
Procedure, shortened: as §2

SNU1 = test: as above; settings: SNU1 cells; 72 hours
Procedure, shortened: as §2

SNU216 = test: as above; settings: SNU216 cells (non-SEM subtype); 72 hours
Procedure, shortened: as §1

SNU484 = test: as above; settings: SNU484 cells (SEM subtype); 72 hours
Procedure, shortened: as §2

SNU601 = test: as above; settings: SNU601 cells; 72 hours
Procedure, shortened: as §2

SNU620 = test: as above; settings: SNU620 cells; 72 hours
Procedure, shortened: as §2

SNU638 = test: as above; settings: SNU638 cells; 72 hours
Procedure, shortened: as §2

SNU668 = test: as above; settings: SNU668 cells (SEM subtype); 72 hours
Procedure, shortened: as §2

SNU719 = test: as above; settings: SNU719 cells; 72 hours
Procedure, shortened: as §1

YCC11 = test: as above; settings: YCC11 cells (SEM subtype); 72 hours
Procedure, shortened: as §2

YCC2 = test: as above; settings: YCC2 cells; 72 hours
Procedure, shortened: as §2

YCC3 = test: as above; settings: YCC3 cells; 72 hours
Procedure, shortened: as §2

FU97 = test: as above; set-up: Average Area Under the Viability Curve (AUC), AUC norm value: scale not given here; settings: FU97 cells; 72 hours
Procedure, shortened: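 Trapezoidal AUC of a 12-point, DMSO-normalized dose-response curve. Luminescent viability was measured after 72 h of exposure at 37° C to half-log serial dilutions (0.5% DMSO control), dosed 24 h after plating FU97 cells at 5×10^3 per well.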

[1] = system: SEM-type gastric cancer cell line; test: Cell viability drug screen, AUC summary over SEM-type lines
Method: An FDA-approved small-molecule pharmacological compound (#L1300) and an anticancer compound for research (#L2000) were purchased from Selecckchem and a 10 mM solution was prepared in DMSO. A total of 1,345 compounds were tested the cell viability of the seven EMT gastric cancer cell lines.
Cells cultured for cell-based drug assay were inoculated into a 96-well white optical plate (Corning) at 5×10^3 cells per well. After 24 hours after inoculation, a 2.5 MJT (primary screen) or a half-log 12-serial diluent (secondary screen) of the pharmacological compound contained in DMSO is added to the cells with a robot using a BioMek FXp liquid processor (Beckman) to add to the cells at 50 mM. The final drug concentration in the 5 ns range and the DMSO specification control (0.5%) were calculated. The cells were then further incubated at 37° C. in a 5% CO2 incubator for 72 hours prior to measuring cell viability using the extra-GLO assay kit (Promega). The luminescent properties were measured after 15 min incubation at room temperature using a plate stacker equipped with a plate stacker. The normalized viability for the DMSO-based control was measured to generate a cell line-specific 12-point dose-response curve for each pharmacological compound, and then the area under the curve (AUC) was calculated using a trapezoidal method.

[2] = system: non-SEM-type gastric cancer cell line; test: Cell viability drug screen, AUC summary over non-SEM-type lines; settings: in the non-SEM-type gastric cancer cell line

SMILES	Average Area Under the Viability Curve (AUC), AUC norm value (AGS)	Average Area Under the Viability Curve (AUC), AUC norm value (Hs746T)	Average Area Under the Viability Curve (AUC), AUC norm value (KATO3)	Average Area Under the Viability Curve (AUC), AUC norm value (MKN1)	Average Area Under the Viability Curve (AUC), AUC norm value (MKN28)	Average Area Under the Viability Curve (AUC), AUC norm value (MKN45)	Average Area Under the Viability Curve (AUC), AUC norm value (MKN74)	Average Area Under the Viability Curve (AUC), AUC norm value (NCC19)	Average Area Under the Viability Curve (AUC), AUC norm value (NCC20)	Average Area Under the Viability Curve (AUC), AUC norm value (NCC24)	Average Area Under the Viability Curve (AUC), AUC norm value (NCC59)	Average Area Under the Viability Curve (AUC), AUC norm value (NCI_N87)	Average Area Under the Viability Curve (AUC), AUC norm value (OCUM1)	Average Area Under the Viability Curve (AUC), AUC norm value (SK4)	Average Area Under the Viability Curve (AUC), AUC norm value (SNU16)	Average Area Under the Viability Curve (AUC), AUC norm value (SNU1750)	Average Area Under the Viability Curve (AUC), AUC norm value (SNU1967)	Average Area Under the Viability Curve (AUC), AUC norm value (SNU1)	Average Area Under the Viability Curve (AUC), AUC norm value (SNU216)	Average Area Under the Viability Curve (AUC), AUC norm value (SNU484)	also measured
Cn1c(=O)n(-c2ccc(C(C)(C)C#N)cc2)c2c3cc(-c4cnc5ccccc5c4)ccc3ncc21 [BEZ235 (NVP-BEZ235), BEZ235]	−1.768	−0.9926	2.717	−0.845	2.007	1.887	0.02041	0.9022	−1.542	0.08486	2.997	0.7505	−0.3719	−3.142	−0.9859	−1.129	−0.17	−1.128	−0.6351	0	Average Area Under the Viability Curve (AUC), AUC norm value (SNU601): 2.66; Average Area Under the Viability Curve (AUC), AUC norm value (SNU620): −0.6893; Average Area Under the Viability Curve (AUC), AUC norm value (SNU638): 0.8979; Average Area Under the Viability Curve (AUC), AUC norm value (SNU668): 1.258; Average Area Under the Viability Curve (AUC), AUC norm value (SNU719): 5.119; Average Area Under the Viability Curve (AUC), AUC norm value (YCC11): −2.698; Average Area Under the Viability Curve (AUC), AUC norm value (YCC2): 0.6403; Average Area Under the Viability Curve (AUC), AUC norm value (YCC3): 0.9008; Average Area Under the Viability Curve (AUC), AUC norm value (FU97): −2.382; normalized viability AUC [1]: negative; AUC value [2]: high
CCC[C@H](NC(=O)/C(C#N)=C/c1cccc(Br)n1)c1ccccc1 [WP1130]	−0.6997	−0.3738	1.454	−0.4264	−0.04006	1.024	−0.1908	1.376	−0.8247	0.3475	0.7588	2.159	−0.652	−0.08364	0	−0.8602	−0.7195	1.527	0.1101	−0.8971	Average Area Under the Viability Curve (AUC), AUC norm value (SNU601): 3.24; Average Area Under the Viability Curve (AUC), AUC norm value (SNU620): 1.336; Average Area Under the Viability Curve (AUC), AUC norm value (SNU638): −0.3485; Average Area Under the Viability Curve (AUC), AUC norm value (SNU668): 0.1607; Average Area Under the Viability Curve (AUC), AUC norm value (SNU719): 1.245; Average Area Under the Viability Curve (AUC), AUC norm value (YCC11): −0.2144; Average Area Under the Viability Curve (AUC), AUC norm value (YCC2): 0.94; Average Area Under the Viability Curve (AUC), AUC norm value (YCC3): 0.8784; Average Area Under the Viability Curve (AUC), AUC norm value (FU97): −0.7929; AUC value [2]: high
